Measured values taken from ChEMBL document CHEMBL6087479, “Discovery of a Potent and Selective GSPT1 Molecular Glue Degrader for the Treatment of Castration-Resistant Prostate Cancer” (J Med Chem, 2025).
Active and inactive are the calls of the source. The calls are words filed in the database; no cut-off is given here.

Assays:
CWR22R [1] = test: Downregulation of AR-FL mRNA level in human 22Rv1 cells at 500 nM incubated for 12 hrs by qRT-PCR analysis; type: functional, cell-based
[2] = molecular target: Protein cereblon/Bromodomain-containing protein 4 (Homo sapiens) (UniProt O60885+Q96SW2); test: Molecular glue degradation activity at CRBN/BRD4 in human 22Rv1 cells at 12 to 1000 nM incubated for 6 hrs by Immunoblotting analysis; type: cell-based; settings: dose 12-1000 nM
CWR22R [3] = test: Antitumor activity against human 22Rv1 cells xenografted in NOD-SCID mouse assessed as tumor growth inhibition at 20 mg/kg, ip administered once daily for 21 days relative to control; type: functional; settings: 22Rv1, 504 h, time 21 day, read-out: TGI
CWR22R [4] = test: Downregulation of BRD2 protein level in human 22Rv1 cells at 500 nM incubated for 6 hrs by mass spectrometry-based label-free quantitative proteomics analysis; type: functional, cell-based
CWR22R [5] = test: Downregulation of BCL2 expression in human 22Rv1 cells incubated for 12 hrs by qRT-PCR analysis; type: functional, cell-based
[6] = molecular target: Eukaryotic peptide chain release factor GTP-binding subunit ERF3A (Homo sapiens) (UniProt P15170); settings: dose 200.0 µM, time 45.0 min
CWR22R [7] = test: Antitumor activity against human 22Rv1 cells xenografted in NOD-SCID mouse assessed as tumor growth inhibition at 10 mg/kg, ip administered once daily for 21 days relative to control; type: functional; settings: 22Rv1, 504 h, time 21 day, read-out: TGI
CWR22R [8] = test: Downregulation of CDK2 expression in human 22Rv1 cells incubated for 12 hrs by qRT-PCR analysis; type: functional, cell-based
LNCaP = test: cells; settings: Homo sapiens, 96 h
Description: Antiproliferative activity against human LNCaP cells assessed as inhibition of cell proliferation incubated for 96 hrs by CellTiter-Glo assay

CWR22R [9] = test: Inhibition of colony formation in human 22Rv1 cells at 6.25 to 25 nM incubated for 14 days by crystal violet staining based assay; type: functional, cell-based; settings: dose 6.25-25 nM, time 14.0 day
CWR22R [10] = test: Downregulation of GSPT1 protein level in human 22Rv1 cells at 500 nM incubated for 6 hrs by mass spectrometry-based label-free quantitative proteomics analysis; type: functional, cell-based
CWR22R [11] = test: Downregulation of PSA protein level in human 22Rv1 cells at 12 to 1000 nM incubated for 12 hrs by Immunoblotting analysis; type: functional, cell-based; settings: dose 12-1000 nM
LNCaP C4-2B = test: cells; settings: Homo sapiens, 96 h
Description: Antiproliferative activity against human LNCaP C4-2B cells assessed as inhibition of cell proliferation incubated for 96 hrs by CellTiter-Glo assay

CWR22R [12] = test: Downregulation of E2F3 expression in human 22Rv1 cells incubated for 12 hrs by qRT-PCR analysis; type: functional, cell-based
[13] = molecular target: Protein cereblon/Eukaryotic peptide chain release factor GTP-binding subunit ERF3A (Homo sapiens) (UniProt Q96SW2+P15170); test: Protac activity at CRBN/GSPT1 in human 22Rv1 cells assessed as GSPT1 degradation at 12 to 1000 nM incubated for 6 hrs by Western blotting analysis; type: cell-based; settings: dose 12-1000 nM
CWR22R [14] = test: Downregulation of BRD4 protein level in human 22Rv1 cells at 500 nM incubated for 6 hrs by mass spectrometry-based label-free quantitative proteomics analysis; type: functional, cell-based
CWR22R [15] = test: Downregulation of EGFR expression in human 22Rv1 cells incubated for 12 hrs by qRT-PCR analysis; type: functional, cell-based
CWR22R [16] = test: Downregulation of AR-V7 mRNA level in human 22Rv1 cells at 500 nM incubated for 12 hrs by qRT-PCR analysis; type: functional, cell-based
CWR22R [17] = test: Downregulation of HSP90B1 expression in human 22Rv1 cells incubated for 12 hrs by qRT-PCR analysis; type: functional, cell-based
CWR22R [18] = test: Antiproliferative activity against siCRBN knockdown human 22Rv1 cells assessed as inhibition of cell growth by Cell-titer Glo luminescent assay; type: functional, cell-based
CWR22R [19] = test: Downregulation of BCL-XL level in human 22Rv1 cells at 12 to 1000 nM incubated for 12 hrs by Immunoblotting analysis; type: functional, cell-based; settings: dose 12-1000 nM
CWR22R [20] = test: Downregulation of GSPT1 protein level in human 22Rv1 cells incubated for 6 hrs by Immunoblotting analysis; type: functional, cell-based; settings: dose 12-1000 nM
CWR22R [21] = test: Reduction of GSPT1 in siCRBN transfected human 22Rv1 cells at 500 nM incubated for 6 hrs by Western blotting analysis; type: functional, cell-based
CWR22R [22] = test: Downregulation of BCL2 level in human 22Rv1 cells at 12 to 1000 nM incubated for 12 hrs by Immunoblotting analysis; type: functional, cell-based; settings: dose 12-1000 nM
[23] = Downregulation of GSPT1 protein level in human 22Rv1 cells at 12 to 1000 nM incubated for 6 hrs by Immunoblotting analysis; settings: 22Rv1, 6 h
[24] = molecular target: Eukaryotic peptide chain release factor GTP-binding subunit ERF3A (Homo sapiens) (UniProt P15170); test: Binding affinity to GSPT1 (unknown origin) by BLI assay
CWR22R [25] = test: Downregulation of GSPT1 protein level in human 22Rv1 cells at 300 nM by Immunoblotting analysis; type: functional, cell-based; settings: time 1-6 hrs
[26] = Toxicity in wild-type NOD-SCID mouse assessed as tolerability administered intraperitoneally once daily for 21 days; settings: in vivo, ip, 504 h, time 21 day
[27] = Binding affinity to […]/DDB1/N-terminal H6-Avi-tagged CRBN TBD (unknown origin) expressed in BL21 (DE3) cells assessed as dissociation constant by BLI assay; design: species or system Homo sapiens
CWR22R [28] = test: Antiproliferative activity against human 22Rv1 cells assessed as inhibition of cell proliferation by CellTiter-Glo assay
CWR22R [29] = test: Downregulation of AR-FL protein level in human 22Rv1 cells at 12 to 1000 nM incubated for 12 hrs by Immunoblotting analysis; type: functional, cell-based; settings: dose 12-1000 nM
CWR22R [30] = test: Downregulation of GSPT1 mRNA level in human 22Rv1 cells at 100 to 300 nM incubated for 12 hrs by qRT-PCR analysis; type: functional, cell-based; settings: dose 100-300 nM
[31] = molecular target: Bromodomain-containing protein 4 (Homo sapiens, UniProt O60885); test: Binding affinity to BRD4 BD1 (unknown origin) assessed as dissociation constant by BLI assay
CWR22R [32] = test: Downregulation of c-MYC protein level in human 22Rv1 cells at 12 to 1000 nM incubated for 12 hrs by Immunoblotting analysis; type: functional, cell-based; settings: dose 12-1000 nM
CWR22R [33] = test: Downregulation of c-MYC mRNA level in human 22Rv1 cells at 500 nM incubated for 12 hrs by qRT-PCR analysis; type: functional, cell-based
CWR22R [34] = test: cells; settings: Homo sapiens, 22Rv1, 96 h
Description: Antiproliferative activity against human 22Rv1 cells assessed as inhibition of cell proliferation incubated for 96 hrs by CellTiter-Glo assay

CWR22R [35] = test: Downregulation of PSA mRNA level in human 22Rv1 cells at 500 nM incubated for 12 hrs by qRT-PCR analysis; type: functional, cell-based
CWR22R [36] = test: Downregulation of TMPRSS2 expression in human 22Rv1 cells incubated for 12 hrs by qRT-PCR analysis; type: functional, cell-based
CWR22R [37] = test: Downregulation of MCL-1 level in human 22Rv1 cells at 12 to 1000 nM incubated for 12 hrs by Immunoblotting analysis; type: functional, cell-based; settings: dose 12-1000 nM
CWR22R [38] = test: Downregulation of AR-V7 protein level in human 22Rv1 cells at 12 to 1000 nM incubated for 12 hrs by Immunoblotting analysis; type: functional, cell-based; settings: dose 12-1000 nM

Chain of Eukaryotic peptide chain release factor GTP-binding subunit ERF3A (Homo sapiens) (P15170 whole entry): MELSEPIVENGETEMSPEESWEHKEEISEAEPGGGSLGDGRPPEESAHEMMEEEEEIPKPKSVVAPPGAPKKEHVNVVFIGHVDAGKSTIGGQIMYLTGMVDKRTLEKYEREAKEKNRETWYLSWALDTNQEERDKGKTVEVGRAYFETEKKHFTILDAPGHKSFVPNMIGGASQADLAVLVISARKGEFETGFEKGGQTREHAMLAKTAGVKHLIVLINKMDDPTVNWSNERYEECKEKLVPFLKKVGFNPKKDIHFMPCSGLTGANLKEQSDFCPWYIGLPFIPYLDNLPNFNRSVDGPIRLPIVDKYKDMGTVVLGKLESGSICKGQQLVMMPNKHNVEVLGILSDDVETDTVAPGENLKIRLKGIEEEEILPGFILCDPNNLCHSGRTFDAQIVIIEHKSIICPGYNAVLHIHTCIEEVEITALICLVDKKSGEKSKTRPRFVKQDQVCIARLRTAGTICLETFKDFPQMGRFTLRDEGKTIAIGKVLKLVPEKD
Chain of Protein cereblon/Eukaryotic peptide chain release factor GTP-binding subunit ERF3A (Homo sapiens) (P15170 whole entry, looked up): as the sequence (P15170 whole entry) above
Chain of Protein cereblon/Eukaryotic peptide chain release factor GTP-binding subunit ERF3A (Homo sapiens) (Q96SW2 whole entry, looked up): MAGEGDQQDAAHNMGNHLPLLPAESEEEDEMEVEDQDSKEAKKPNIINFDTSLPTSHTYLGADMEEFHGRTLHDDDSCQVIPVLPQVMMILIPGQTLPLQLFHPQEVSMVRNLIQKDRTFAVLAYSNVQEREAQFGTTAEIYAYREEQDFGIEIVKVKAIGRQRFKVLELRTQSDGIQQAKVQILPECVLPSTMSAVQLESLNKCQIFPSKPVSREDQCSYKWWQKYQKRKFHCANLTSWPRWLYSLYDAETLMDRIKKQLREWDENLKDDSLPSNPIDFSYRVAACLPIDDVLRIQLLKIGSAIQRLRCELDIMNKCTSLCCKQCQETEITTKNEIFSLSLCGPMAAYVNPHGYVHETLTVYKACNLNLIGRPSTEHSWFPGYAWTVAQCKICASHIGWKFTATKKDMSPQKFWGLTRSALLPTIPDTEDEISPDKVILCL
Chain of Protein cereblon/Bromodomain-containing protein 4 (Homo sapiens) (Q96SW2 whole entry, looked up, other chains not shown): as the sequence (Q96SW2 whole entry, looked up) above

Q: What does the source list for `COc1ccc(Br)cc1S(=O)(=O)Nc1cc2c(C)noc2cc1OCC(=O)NCCCCCNc1cccc2c1C(=O)N(C1CCC(=O)NC1=O)C2=O` (stereo not given)?
A: Activity (CWR22R [1]): Active; Activity [2]: inactive; inhibition in vivo at 20 mg/kg (CWR22R [3]): 55%; Activity (CWR22R [4]): inactive; Activity (CWR22R [5]): Active; deltaTm [6]: inactive; inhibition in vivo at 10 mg/kg (CWR22R [7]): 44%; Activity (CWR22R [8]): Active; IC50 (LNCaP): 34 nM; inhibition (CWR22R [9]): Active; Activity (CWR22R [10]): Active; Activity (CWR22R [11]): Active; IC50 (LNCaP C4-2B): 374 nM; Activity (CWR22R [12]): Active; Activity [13]: Active; Activity (CWR22R [14]): inactive; Activity (CWR22R [15]): Active; Activity (CWR22R [16]): Active; Activity (CWR22R [17]): Active; Activity (CWR22R [18]): inactive; Activity (CWR22R [19]): Active; Activity (CWR22R [20]): Dose-dependent-effect; Activity (CWR22R [21]): inactive; Activity (CWR22R [22]): Active; DC50 [23]: 19 nM; Activity [24]: inactive; Activity (CWR22R [25]): Time-dependent-effect; Activity [26]: Non-toxic; Kd [27]: 930 nM; IC50 (CWR22R [28]): 7 nM; Activity (CWR22R [29]): Active; Activity (CWR22R [30]): inactive; Kd [31]: 38000 nM; Activity (CWR22R [32]): Active; Activity (CWR22R [33]): Active; IC50 (CWR22R [34]): 7 nM; Activity (CWR22R [35]): Active; Activity (CWR22R [36]): Active; Activity (CWR22R [37]): Active; Activity (CWR22R [38]): Active
